Laboratory results reported in ChEMBL document CHEMBL3774345, “Synthesis of new diarylamides with pyrimidinyl pyridine scaffold and evaluation of their anti-proliferative effect on cancer cell lines” (Bioorg Med Chem Lett, 2016).

Assays:
Type in all cases: functional
[1] = Cytotoxicity against human SF539 cells assessed as cell growth at 10^-4 M after 24 hrs by SRB assay; conditions: SF-539, 24 h, read-out: Activity
U-251 [2] = test: Cytotoxicity against human U251 cells assessed as cell growth at 10^-5 M after 24 hrs by SRB assay; conditions: U-251, 24 h, read-out: Activity
[3] = Cytotoxicity against human LOXIMVI cells assessed as cell growth at 10^-7 M after 24 hrs by SRB assay; conditions: LOX IMVI, read-out: Activity
[4] = Cytotoxicity against human HOP62 cells assessed as cell growth at 10^-4 M after 24 hrs by SRB assay; conditions: HOP-62, 24 h, read-out: Activity
A498 = test: Cytotoxicity against human A498 cells after 24 hrs by SRB assay; conditions: A498, 24 h
[5] = Cytotoxicity against human RPMI8226 cells assessed as cell growth at 10^-8 M after 24 hrs by SRB assay; conditions: RPMI-8226, 24 h, read-out: Activity
[6] = Cytotoxicity against human SKOV3 cells assessed as cell growth at 10^-4 M after 24 hrs by SRB assay; conditions: SK-OV-3, 24 h, read-out: Activity
MCF7 [7] = test: Cytotoxicity against human MCF7 cells assessed as cell growth at 10^-4 M after 24 hrs by SRB assay; conditions: MCF7, 24 h, read-out: Activity
[8] = Cytotoxicity against human HL-60(TB) cells after 24 hrs by SRB assay; conditions: HL-60, 24 h
[9] = Cytotoxicity against human Hs 578T cells assessed as cell growth at 10^-8 M after 24 hrs by SRB assay; conditions: read-out: Activity
SN12C = test: Cytotoxicity against human SN12C cells assessed as cell growth at 10^-6 M after 24 hrs by SRB assay; conditions: read-out: Activity
[10] = Cytotoxicity against human HCC2998 cells assessed as cell growth at 10^-5 M after 24 hrs by SRB assay; conditions: HCC 2998, 24 h, read-out: Activity
NCI-H460 [11] = test: Cytotoxicity against human NCI-H460 cells assessed as cell growth at 10^-5 M after 24 hrs by SRB assay; conditions: NCI-H460, 24 h, read-out: Activity
[12] = Cytotoxicity against human HCT15 cells assessed as cell growth at 10^-4 M after 24 hrs by SRB assay; conditions: HCT-15, 24 h, read-out: Activity
[13] = Cytotoxicity against human HL-60(TB) cells assessed as cell growth at 10^-5 M after 24 hrs by SRB assay; conditions: HL-60, 24 h, read-out: Activity
U-251 [14] = test: Cytotoxicity against human U251 cells assessed as cell growth at 10^-4 M after 24 hrs by SRB assay; conditions: U-251, 24 h, read-out: Activity
[15] = Cytotoxicity against human BT549 cells assessed as cell growth at 10^-8 M after 24 hrs by SRB assay; conditions: BT-549, 24 h, read-out: Activity
K562 = test: Cytotoxicity against human K562 cells assessed as cell growth at 10^-4 M after 24 hrs by SRB assay; conditions: K562, 24 h, read-out: Activity
[16] = Cytotoxicity against human Hs 578T cells assessed as cell growth at 10^-6 M after 24 hrs by SRB assay; conditions: read-out: Activity
NCI-H522 = test: Cytotoxicity against human NCI-H522 cells assessed as cell growth at 10^-8 M after 24 hrs by SRB assay; conditions: NCI-H522, 24 h, read-out: Activity
[17] = Cytotoxicity against human HCT116 cells after 24 hrs by SRB assay; conditions: HCT-116, 24 h
[18] = Cytotoxicity against human UACC257 cells assessed as cell growth at 10^-5 M after 24 hrs by SRB assay; conditions: UACC-257, 24 h, read-out: Activity
SK-MEL-2 [19] = test: Cytotoxicity against human SK-MEL-2 cells assessed as cell growth at 10^-7 M after 24 hrs by SRB assay; conditions: SK-MEL-2, 24 h, read-out: Activity
SK-MEL-2 [20] = test: Cytotoxicity against human SK-MEL-2 cells after 24 hrs by SRB assay; conditions: SK-MEL-2, 24 h
MCF7 [21] = test: Cytotoxicity against human MCF7 cells assessed as cell growth at 10^-5 M after 24 hrs by SRB assay; conditions: MCF7, 24 h, read-out: Activity
T47D = test: Cytotoxicity against human T47D cells assessed as cell growth at 10^-5 M after 24 hrs by SRB assay; conditions: read-out: Activity
NCI-H460 [22] = test: Cytotoxicity against human NCI-H460 cells assessed as cell growth at 10^-8 M after 24 hrs by SRB assay; conditions: NCI-H460, 24 h, read-out: Activity
MDA-MB-231 = test: Cytotoxicity against human MDA-MB-231 cells assessed as cell growth at 10^-5 M after 24 hrs by SRB assay; conditions: MDA-MB-231, 24 h, read-out: Activity
[23] = Cytotoxicity against human HOP62 cells assessed as cell growth at 10^-8 M after 24 hrs by SRB assay; conditions: HOP-62, 24 h, read-out: Activity
[24] = Cytotoxicity against human UACC257 cells assessed as cell growth at 10^-6 M after 24 hrs by SRB assay; conditions: UACC-257, 24 h, read-out: Activity
SR = test: Cytotoxicity against human SR cells assessed as cell growth at 10^-5 M after 24 hrs by SRB assay; conditions: read-out: Activity
A549 = test: Cytotoxicity against human A549 cells assessed as cell growth at 10^-8 M after 24 hrs by SRB assay; conditions: A549, 24 h, read-out: Activity
[25] = Cytotoxicity against human SW620 cells assessed as cell growth at 10^-4 M after 24 hrs by SRB assay; conditions: SW-620, 24 h, read-out: Activity
[26] = Cytotoxicity against human RXF393 cells assessed as cell growth at 10^-5 M after 24 hrs by SRB assay; conditions: RXF 393, 24 h, read-out: Activity
[27] = Cytotoxicity against human SF268 cells after 24 hrs by SRB assay; conditions: SF-268, 24 h
[28] = Cytotoxicity against human OVCAR5 cells assessed as cell growth at 10^-8 M after 24 hrs by SRB assay; conditions: OVCAR-5, 24 h, read-out: Activity
[29] = read-out: LC50 (the source's name)
[30] = read-out: pLC50 (the source's name) (converted)

For `O=C(Nc1cc(-c2cccnc2)nc(NCCCN2CCOCC2)n1)c1cc(Br)cc(C(F)(F)F)c1`, the growth at 100 µM [1] was -85%, the growth at 10 µM (U-251 [2]) was -57% and the growth at 0.1 µM [3] was 92%. The growth at 100 µM [4] was -97%, the GI50 (A498; read-out: GI50) was 3.43 µM and the CC50 (A498; [29]) was 40.5 µM. The TGI (A498; read-out: TGI) was 13.4 µM, the GI50 (A498; read-out: pGI50 (converted)) was 3.39 µM and the CC50 (A498; [30]) was 40.7 µM. For the same compound, the TGI (A498; read-out: pTGI (converted)) was 13.5 µM, the growth at 0.01 µM [5] was 103% and the growth at 100 µM [6] was -99%. For the same compound, the growth at 100 µM (MCF7 [7]) was -75%, the GI50 ([8]; read-out: GI50) was 2.15 µM and the CC50 [8, 29] was 90.1 µM. The TGI ([8]; read-out: TGI) was 5.86 µM, the GI50 ([8]; read-out: pGI50 (converted)) was 2.14 µM and the CC50 [8, 30] was 89.1 µM. For the same compound, the TGI ([8]; read-out: pTGI (converted)) was 5.89 µM, the growth at 0.01 µM [9] was 93% and the growth at 1 µM (SN12C) was 101%. For the same compound, the growth at 10 µM [10] was -77%, the growth at 10 µM (NCI-H460 [11]) was -5% and the growth at 100 µM [12] was -96%. It also gave a growth at 10 µM [13] of -27%, a growth at 100 µM (U-251 [14]) of -93% and a growth at 0.01 µM [15] of 95%. The growth at 100 µM (K562) was -7%, the growth at 1 µM [16] was 94% and the growth at 0.01 µM (NCI-H522) was 86%. For the same compound, the GI50 ([17]; read-out: GI50) was 2.09 µM, the CC50 [17, 29] was 13.7 µM and the TGI ([17]; read-out: TGI) was 4.81 µM. It also gave a GI50 ([17]; read-out: pGI50 (converted)) of 2.09 µM, a CC50 [17, 30] of 13.8 µM and a TGI ([17]; read-out: pTGI (converted)) of 4.79 µM. The growth at 10 µM [18] was -83%, the growth at 0.1 µM (SK-MEL-2 [19]) was 95% and the GI50 (SK-MEL-2 [20]; read-out: GI50) was 4.52 µM. It also gave a CC50 (SK-MEL-2 [20]; [29]) of 45.8 µM, a TGI (SK-MEL-2 [20]; read-out: TGI) of 17 µM and a GI50 (SK-MEL-2 [20]; read-out: pGI50 (converted)) of 4.47 µM. It also gave a CC50 (SK-MEL-2 [20]; [30]) of 45.7 µM, a TGI (SK-MEL-2 [20]; read-out: pTGI (converted)) of 17 µM and a growth at 10 µM (MCF7 [21]) of -3%. For the same compound, the growth at 10 µM (T47D) was 21%, the growth at 0.01 µM (NCI-H460 [22]) was 99% and the growth at 10 µM (MDA-MB-231) was -59%. For the same compound, the growth at 0.01 µM [23] was 94%, the growth at 1 µM [24] was 113% and the growth at 10 µM (SR) was 1%. The growth at 0.01 µM (A549) was 110%, the growth at 100 µM [25] was -87% and the growth at 10 µM [26] was -73%. It also gave a GI50 ([27]; read-out: GI50) of 2.63 µM, a CC50 [27, 29] of 37.8 µM and a TGI ([27]; read-out: TGI) of 10.4 µM. For the same compound, the GI50 ([27]; read-out: pGI50 (converted)) was 2.63 µM, the CC50 [27, 30] was 38 µM and the TGI ([27]; read-out: pTGI (converted)) was 10.5 µM. For the same compound, the growth at 0.01 µM [28] was 92%.
